pIC50: −log10 of the molar value.
Legend:
Assay type in all cases: cell-based
GP2d = assay: Cell proliferation (cell count by microscopy), Example 2; conditions: single agent, 72 h, cell count relative to DMSO, unit from text b187 (micromolar, top dose 10 μM)
Method: (§1) COMPOUNDS A and B were dissolved in 100% DMSO (Sigma, Catalog number D2650) at concentrations of 20 mM and stored at −20° C. until use. Compounds were arrayed in drug master plates (Greiner, Catalog number 788876) and serially diluted 3-fold (7 steps) at 2000× concentration.
(§2) To test the effect of the combination of COMPOUND A and COMPOUND B on cell proliferation cells were plated in black 384-well microplates with clear bottom (Matrix/Thermo Scientific, Catalog number 4332) in 50 μL media per well at cell densities between 500 and 1250 cells/well (Table 1) and allowed to incubate at 37 degrees, 5% CO2 for 24 h. After 24 h one 384-well plate per cell line was prepared for cell counting by microscopy (see below) without receiving treatment (=‘baseline’). The other cell plates were treated by transferring 25 nL of the 2000× compound from drug master plates using an ATS acoustic liquid dispenser (ECD Biosystems) and resulting in a final 1× concentration. COMPOUND A was used over a final concentration range of 13 nM-10 μM, and COMPOUND B was used over a final concentration range of 13 nM-10 μM (7 1:3 dilution steps). For the combination of COMPOUND A with COMPOUND B the single agents were combined at a fixed ratio of 1:1 at each dilution resulting in 7 combination treatments. […] After compound addition 50 nL of 2 mM CellEvent Caspase-3/7 Green Detection Reagent (ThermoFisher, Catalog number C10423) were added to one of the three replicates using the HP D300 Digital Dispenser (Tecan). Caspase 3/7 induction was measured as a proxy for apoptosis induced by the treatments. Cells were treated for 72 h to 96 h depending on their doubling time (Table 1), and Caspase 3/7 activation was measured every 24 h by microscopy using an InCell Analyzer 2000 (GE Healthcare) equipped with a 4× objective and FITC excitation/emission filters. At the end of the treatment cells were prepared for cell counting by microscopy. Cells were fixed and permeabilised for 45 minutes in 4% PFA (Electron Microscopy Sciences, Catalog number 15714), 0.12% TX-100 (Electron Microscopy Sciences, Catalog number 22140) in PBS (Boston Bioproducts, Catalog number BM-220). After washing cells three times with PBS their DNA was stained for 30 minutes with Hoechst 33342 (ThermoFisher, Catalog number H3570) at a final concentration of 4 μg/mL. Cells were washed three times with PBS and then plates were heat-sealed using a PlateLoc (Agilent Technologies) with aluminum seals (Agilent Technologies, Catalog number 06644-001) and stored at 4° C. until imaging. All cells per well/treatment were captured in a single image by fluorescence microscopy using an InCell Analyzer 2000 (GE Healthcare) equipped with a 4× objective and DAPI excitation/emission filters.
(§3) Images were analyzed after adapting previously described methods (Horn, Sandmann et al. 2011, Nat. Methods 8(4): 341-346) and using the Bioconductor package EBImage in R (Pau, Fuchs et al. 2010, Bioinformatics 26(7):979-981). Objects in both channels, DAPI (for Hoechst/DNA) and FITC (for Caspase 3/7), were segmented separately by adaptive thresholding and counted. A threshold for Caspase 3/7 positive objects was defined manually per cell line after comparing negative controls (DMSO) and positive controls (Staurosporine). By analyzing 17 additional object/nuclei features in the DNA channel (shape and intensity features) debris/fragmented nuclei were identified. To this end per cell line the distributions of the additional features between positive controls (Staurosporine) and negative controls (DMSO) were compared manually. Features that could differentiate between the conditions (e.g. a shift in the distribution of a feature measurement comparing DMSO with Staurosporine) where used to define the ‘debris’ population versus the population of ‘viable’ nuclei. The debris counts were subtracted from raw nuclei counts. The resulting nuclei number was used as measure of cell proliferation (‘cell count’). […]

HCT-116 = assay: as above; conditions: Homo sapiens; HCT-116, single agent, 72 h, cell count relative to DMSO
Method: as §1, §2, §3

LS-180 = assay: as above; conditions: Homo sapiens, LS180; LS-160 (so in the source), single agent, 72 h, cell count relative to DMSO
Method: as §1, §2, §3

LoVo = assay: as above; conditions: Homo sapiens, single agent, 96 h, cell count relative to DMSO
Method: as §1, §2, §3

RKO = assay: as above; conditions: Homo sapiens, single agent, 72 h, cell count relative to DMSO
Method: as §1, §2, §3

[1] = tested on: 5 TP53 wild type colorectal cancer cell lines; assay: Cell proliferation over the cell line panel, Example 2; conditions: Example 2, panel of 5 lines, 13 nM-10 μM
Method: To test the effect of the combination of COMPOUND A and COMPOUND B on cell proliferation cells were plated in black 384-well microplates with clear bottom (Matrix/Thermo Scientific, Catalog number 4332) in 50 μL media per well at cell densities between 500 and 1250 cells/well (Table 1) and allowed to incubate at 37 degrees, 5% CO2 for 24 h. After 24 h one 384-well plate per cell line was prepared for cell counting by microscopy (see below) without receiving treatment (=‘baseline’). The other cell plates were treated by transferring 25 nL of the 2000× compound from drug master plates using an ATS acoustic liquid dispenser (ECD Biosystems) and resulting in a final 1× concentration. COMPOUND A was used over a final concentration range of 13 nM-10 μM, and COMPOUND B was used over a final concentration range of 13 nM-10 μM (7 1:3 dilution steps). […] Caspase 3/7 induction was measured as a proxy for apoptosis induced by the treatments. Cells were treated for 72 h to 96 h depending on their doubling time (Table 1), and Caspase 3/7 activation was measured every 24 h by microscopy using an InCell Analyzer 2000 (GE Healthcare) equipped with a 4× objective and FITC excitation/emission filters. […] All cells per well/treatment were captured in a single image by fluorescence microscopy using an InCell Analyzer 2000 (GE Healthcare) equipped with a 4× objective and DAPI excitation/emission filters. […]

pIC50 (HCT-116)	pIC50 (LoVo)	SMILES	pIC50 (GP2d)	pIC50 (LS-180)	pIC50 (RKO)	Single agent growth inhibition, in words [1]
7.00	6.22	COc1cc2c(cc1OC(C)C)[C@H](c1ccc(Cl)cc1)N(c1ccc(N(C)C[C@H]3CC[C@H](N4CCN(C)C(=O)C4)CC3)cc1)C(=O)C2 [COMPOUND B, (S)-1-(4-Chloro-phenyl)-7-isopropoxy-6-methoxy-2-(4-{methyl-[4-(4-methyl-3-oxo-piperazin-1-yl)-trans-cyclohexylmethyl]-amino}-phenyl)-1,4-dihydro-2H-isoquinolin-3-one]	6.10	6.15	5.92	inhibited the growth of cell lines with sub-micromolar to micromolar IC50 values
5.01	< 5.00	Cc1nc(NC(=O)N2CCC[C@H]2C(N)=O)sc1-c1ccnc(C(C)(C)C(F)(F)F)c1 [COMPOUND A, (S)-Pyrrolidine-1,2-dicarboxylic acid 2-amide 1-({4-methyl-5-[2-(2,2,2-trifluoro-1,1-dimethyl-ethyl)-pyridin-4-yl]-thiazol-2-yl}-amide)]	6.30	< 5.00	5.41	inhibited the growth of 2 of the cell lines with micromolar IC50 values, and was active only at the highest dose (10 μM) in the 3 other lines

Source: patent US20180318275A1, “COMBINATION THERAPY USING PI3K INHIBITOR AND MDM2 INHIBITOR” (Novartis AG, priority 2015, published 2018)
